Data published in publication PMC6832952, “Synthesis and Evaluation of Pyrimidine Steroids as Antiproliferative Agents” (Molecules, 2019).
Like-named read-outs stand apart in the source and are kept apart here.

Legend:
[1] = test system: A549 (non-small cell lung) cells; assay: Growth inhibition assay (NCI protocol), A549; assay type: cell-based, human; conditions: 48 h exposure
Text: (§1) We studied the antiproliferative activity of α,β-unsaturated ketones (2 and 6) and steroidal pyrimidines (3 and 7) against human cell lines following the guidelines of the National Cancer Institute. For the tests we selected five human solid tumor cell lines from diverse origins and one human fibroblast cell line as a model of non-tumor cells. These cell lines were chosen as representative of drug sensitive (A549, HBL-100, and HeLa) and drug resistant (T-47D and WiDr) monolayer cultures based on previous studies. The steroidal anticancer drugs abiraterone and galeterone were also tested for comparison purposes. […] This is a relevant finding, since our compounds are non-toxic to healthy cells, whilst the steroidal anticancer drugs inhibit the growth of fibroblasts at GI50 values as low as 4.5–5 µM.
(§2) The following densities (cells per well) were used: 2500 (A549, HBL-100, HeLa and SW1573), 5000 (T-47D, WiDr and SW1573/PGP), and 7000 (BJ-hTERT). […] Abiraterone and galeterone were used as reference drugs for antiproliferative tests, verapamil was used as a P-gp transport inhibitor in SW1573/Pgp experiments, and their stock solutions were prepared in DMSO at 40 mM. Paclitaxel and vinblastine were used as positive controls in SW1573/Pgp experiments and were initially dissolved in DMSO at 4 mM. For each test compound, the cells were exposed to serial decimal dilutions in the range of 0.001–100 μM for a period of 48 h. Cell culture medium containing verapamil was prepared by adding the final concentration of verapamil of 10 μM. For each product GI50 values were calculated according to the NCI formulas.

[2] = test system: HBL-100 (breast) cells; assay: Growth inhibition assay (NCI protocol), HBL-100; assay type: cell-based, human; conditions: 48 h exposure
Text: as §1, §2

[3] = test system: P-gp; assay: in vitro; conditions: human
Text: (§3) Next, we studied if the compounds could be substrates for P-glycoprotein 1 (P-gp). P-gp is an important protein of the cell membrane that pumps xenobiotics out of cells. One of the resistance mechanisms to anticancer drugs involves the overexpression of P-gp by cancer cells, rendering these cancers multidrug resistant. Therefore, it is relevant to know whether compounds are substrates for P-gp or not. As a model to test the effect of P-gp overexpression in our compounds, we used a cell line-based assay. We selected one wild type human lung cancer cell line (SW1573) and its P-gp overexpressing variant (SW1573/PGP). In this test, cells were exposed to the compounds for 48 h in the absence or the presence of 10 µM verapamil, a well-known P-gp inhibitor [20].
(§4) The human solid tumor cell lines A549 (non-small cell lung), HBL-100 (breast), and HeLa (cervix), SW1573 (non-small cell lung), and its P-gp overexpressing variant (SW1573/Pgp), T-47D (breast), and WiDr (colon) were used in this study. These cell lines used in this study were kindly provided by Dr. Godefridus J. Peters (Cancer Center Amsterdam, Vrije Universiteit, Amsterdam, The Netherlands). BJ-hTERT human fibroblast cells were given by Dr. Raimundo Freire (Universidad de La Laguna, Canary Islands). All cells were grown in RPMI 1640 supplemented with 1 mM glutamine, 5% FBS and antibiotics. Cells were grown at 37 °C in a humidified atmosphere of 5% CO2 and maintained at low passage.
(§5) The antiproliferative activity was tested in vitro against human cancer cells using the protocol of the National Cancer Institute (NCI) of the USA16 with minor modifications. The following densities (cells per well) were used: 2500 (A549, HBL-100, HeLa and SW1573), 5000 (T-47D, WiDr and SW1573/PGP), and 7000 (BJ-hTERT). Samples for testing were dissolved initially in DMSO at 40 mM, i.e., 400 times the maximum test concentration. Abiraterone and galeterone were used as reference drugs for antiproliferative tests, verapamil was used as a P-gp transport inhibitor in SW1573/Pgp experiments, and their stock solutions were prepared in DMSO at 40 mM. Paclitaxel and vinblastine were used as positive controls in SW1573/Pgp experiments and were initially dissolved in DMSO at 4 mM. For each test compound, the cells were exposed to serial decimal dilutions in the range of 0.001–100 μM for a period of 48 h. Cell culture medium containing verapamil was prepared by adding the final concentration of verapamil of 10 μM. For each product GI50 values were calculated according to the NCI formulas.

[4] = test system: T-47D (breast) cells; assay: Growth inhibition assay (NCI protocol), T-47D; assay type: cell-based, human; conditions: 48 h exposure
Text: as §1, §2

[5] = target: T1, P-glycoprotein 1 (P-gp) (Homo sapiens, UniProt P08183); assay: P-glycoprotein assay (SW1573/PGP vs SW1573, resistance factor); assay type: cell-based; conditions: for Rf w Verapamil / Rf w/o Verapamil: ratio between GI50 values in SW1573/PGP and SW1573 cells; for Rf w Verapamil: with 10 µM verapamil; for Rf w/o Verapamil: without verapamil
T1 construct: its P-gp overexpressing variant (SW1573/PGP); endogenous in cells; host or cells: SW1573 and SW1573/PGP (SW1573/Pgp) human non-small cell lung cancer cells, provided by Dr. G. J. Peters (Amsterdam)
T1 sequence (P08183 whole entry): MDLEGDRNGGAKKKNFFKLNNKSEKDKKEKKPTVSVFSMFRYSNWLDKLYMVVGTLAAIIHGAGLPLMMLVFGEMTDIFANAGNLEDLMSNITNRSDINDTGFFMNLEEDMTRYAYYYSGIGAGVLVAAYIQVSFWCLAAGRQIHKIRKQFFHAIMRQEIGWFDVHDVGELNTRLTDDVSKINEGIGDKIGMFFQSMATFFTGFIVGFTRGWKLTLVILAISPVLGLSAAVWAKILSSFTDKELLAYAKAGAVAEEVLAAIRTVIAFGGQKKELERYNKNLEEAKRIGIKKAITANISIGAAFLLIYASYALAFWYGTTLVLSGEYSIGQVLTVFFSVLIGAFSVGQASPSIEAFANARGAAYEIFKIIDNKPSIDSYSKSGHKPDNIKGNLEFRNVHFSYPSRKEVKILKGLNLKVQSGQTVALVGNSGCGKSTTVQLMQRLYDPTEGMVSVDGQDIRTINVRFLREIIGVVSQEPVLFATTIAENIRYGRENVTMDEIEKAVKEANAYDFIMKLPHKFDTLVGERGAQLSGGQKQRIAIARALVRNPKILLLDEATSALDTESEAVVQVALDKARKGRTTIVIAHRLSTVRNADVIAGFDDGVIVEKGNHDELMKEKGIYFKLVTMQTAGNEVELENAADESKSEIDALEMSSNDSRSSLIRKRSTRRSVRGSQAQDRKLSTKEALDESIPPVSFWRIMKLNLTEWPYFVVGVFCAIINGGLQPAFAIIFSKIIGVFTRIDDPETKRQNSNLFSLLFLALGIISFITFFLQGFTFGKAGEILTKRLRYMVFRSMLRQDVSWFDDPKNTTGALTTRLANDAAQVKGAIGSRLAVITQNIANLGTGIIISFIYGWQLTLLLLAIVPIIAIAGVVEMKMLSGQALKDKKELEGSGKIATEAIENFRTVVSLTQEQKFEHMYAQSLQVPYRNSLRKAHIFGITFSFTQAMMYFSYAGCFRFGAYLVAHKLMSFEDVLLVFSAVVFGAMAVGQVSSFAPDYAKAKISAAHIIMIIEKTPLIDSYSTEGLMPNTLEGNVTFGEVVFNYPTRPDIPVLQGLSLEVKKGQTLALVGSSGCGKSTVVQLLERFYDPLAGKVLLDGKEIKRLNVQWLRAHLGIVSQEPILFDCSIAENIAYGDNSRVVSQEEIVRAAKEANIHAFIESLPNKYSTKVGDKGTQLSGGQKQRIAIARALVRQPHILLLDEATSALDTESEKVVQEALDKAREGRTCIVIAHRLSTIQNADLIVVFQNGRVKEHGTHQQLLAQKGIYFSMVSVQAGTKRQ
Text: as §3, §5

[6] = test system: BJ-hTERT human fibroblast cells; assay: Growth inhibition assay (NCI protocol), BJ-hTERT fibroblasts; assay type: cell-based; conditions: 48 h exposure, non-tumor cells
Text: as §1, §2

[7] = test system: SW1573 (non-small cell lung) cells; assay: Growth inhibition assay, SW1573 wild type; assay type: cell-based, human; conditions: 48 h, without verapamil, read-out: GI50 SW1573 w/o Verapamil
Text: as §3, §4, §5

[8] = test system: WiDr (colon) cells; assay: Growth inhibition assay (NCI protocol), WiDr; assay type: cell-based, human; conditions: 48 h exposure
Text: as §1, §2

[9] = test system: HeLa (cervix) cells; assay: Growth inhibition assay (NCI protocol), HeLa; assay type: cell-based, human; conditions: 48 h exposure
Text: as §1, §2

[10] = test system: SW1573/PGP cells; assay: in vitro
Text: as §3, §4, §5

[11] = test system: human solid tumor cell lines; assay: Antiproliferative activity against the panel of human solid tumor cell lines; assay type: cell-based; conditions: A549, HBL-100, HeLa, T-47D, WiDr, read-out: GI50 range against all tumor cells
Text: as §4
The antiproliferative activity was tested in vitro against human cancer cells using the protocol of the National Cancer Institute (NCI) of the USA16 with minor modifications. The following densities (cells per well) were used: 2500 (A549, HBL-100, HeLa and SW1573), 5000 (T-47D, WiDr and SW1573/PGP), and 7000 (BJ-hTERT). Samples for testing were dissolved initially in DMSO at 40 mM, i.e., 400 times the maximum test concentration. […] For each product GI50 values were calculated according to the NCI formulas.

[12] = Solubility under protocol conditions; assay type: physicochemical; conditions: growth inhibition protocol conditions
Text: as §1
as §2, with “For each test compound, the cells were exposed to serial decimal dilutions in the range of 0.001–100 μM for a period of 48 h. Cell culture medium containing verapamil was prepared by adding the final concentration of verapamil of 10 μM.” left out

[13] = Homo sapiens, SW1573, reference drugs PTX and VB

| Molecule | GI50 ([1]; Homo sapiens, A549) | GI50 ([2]; Homo sapiens, HBL-100) | melting point | GI50 at 48 h [3] | GI50 ([4]; Homo sapiens, T47D) | Rf w Verapamil [5] | Rf w/o Verapamil [5] | GI50 ([6]; Homo sapiens, Fibroblast) | GI50 ([7]; Homo sapiens, SW1573) | GI50 ([8]; Homo sapiens, WiDr) | GI50 ([9]; Homo sapiens, HeLa) | further results |
| --- | --- | --- | --- | --- | --- | --- | --- | --- | --- | --- | --- | --- |
| C[C@]12CCC3C(CC=C4C[C@@H](O)CC[C@@]43C)C1CCC2C1=CC(c2ccccc2)NC(=S)N1 (stereo partly drawn) [Compound 3c, 17β-(1′,3′,6′-trihydro-6′-phenyl-2′-thioxopyrimidin-4′-yl)-androst-5-en-3β-ol] | 7.7 ± 1 µM | 45 ± 7.9 µM | 208 to 210 °C | 38 ± 6.1 µM | 13 ± 2.3 µM | 1.8 | 3.2 | > 100 µM | 12 ± 2.7 µM | 9.2 ± 1.6 µM | 11 ± 1.5 µM |  |
| CC(=O)O[C@H]1C(=O)[C@@]2(C)[C@H]([C@H](OC(=O)c3ccccc3)[C@]3(O)C[C@H](OC(=O)[C@H](O)[C@@H](NC(=O)c4ccccc4)c4ccccc4)C(C)=C1C3(C)C)[C@]1(OC(C)=O)CO[C@@H]1C[C@@H]2O [PTX, Paclitaxel, reference compound] |  |  |  | 0.196 ± 0.053 µM |  | 2.6 | 128 |  |  |  |  | GI50 [7, 13]: 0.0015 ± 0.0005 µM |
| C[C@]12CC[C@H](O)CC1=CC[C@@H]1[C@@H]2CC[C@]2(C)C(n3cnc4ccccc43)=CC[C@@H]12 [Galeterone, galeterone, reference compound] | 3.9 ± 1.3 µM | 10 ± 0.9 µM |  |  | 2.1 ± 0.1 µM |  |  | 5 ± 1.3 µM |  | 2.7 ± 0.2 µM | 5.3 ± 0.4 µM |  |
| C[C@]12CCC3C(CC=C4C[C@@H](O)CC[C@@]43C)C1CCC2C1=CC(c2ccccc2)NC(=O)N1 (stereo partly drawn) [Compound 3b, 17β-(1′,3′,6′-trihydro-2′-oxo-6′-phenylpyrimidin-4′-yl)-androst-5-en-3β-ol] | 11 ± 2.9 µM | 16 ± 1.3 µM | 108 to 110 °C | 34 ± 13 µM | 15 ± 1.3 µM | 1.6 | 1.9 | 97 ± 5.9 µM |  | 15 ± 3.5 µM | 14 ± 3.6 µM |  |
| C[C@]12CC[C@H](O)CC1=CC[C@@H]1[C@@H]2CC[C@]2(C)C(c3cccnc3)=CC[C@@H]12 [Abiraterone, abiraterone, reference compound] | 95 ± 0.8 µM | > 100 µM |  |  | 24 ± 4.5 µM |  |  | 4.5 ± 1 µM |  | 42 ± 7.7 µM | 7.9 ± 0.5 µM |  |
| CC[C@]1(O)C[C@@H]2CN(CCc3c([nH]c4ccccc34)[C@@](C(=O)OC)(c3cc4c(cc3OC)N(C)[C@H]3[C@@](O)(C(=O)OC)[C@H](OC(C)=O)[C@]5(CC)C=CCN6CC[C@]43[C@@H]65)C2)C1 [VB, vinblastine, reference compound] |  |  |  | 2.05 ± 0.682 µM |  | 1.3 | 2388 |  |  |  |  | GI50 [7, 13]: 0.0009 ± 0.0003 µM |
| 20-Oxopregna-5,16-dien-3β-yl Acetate [Compound 6] |  |  |  |  |  |  |  |  |  |  |  | GI50 [1]: 26 ± 5.2 µM; GI50 [2]: 64 ± 1.6 µM; GI50 [10]: > 100 µM; GI50 [4]: 29 ± 4.5 µM; GI50 [6]: > 100 µM; GI50 [7]: 72 ± 10 µM; GI50 [8]: 37 ± 2.1 µM; GI50 [9]: 3.6 ± 0.4 µM |
| C[C@]12CC[C@H]3[C@@H](CC=C4C[C@@H](O)CC[C@@]43C)[C@@H]1CC[C@@H]2C(=O)/C=C/c1ccccc1 [Compound 2, (E)-21-benzyliden-3β-hydroxypregn-5-en-20-one] | 23 ± 1.6 µM | 19 ± 3.7 µM |  | 29 ± 5.5 µM | 9.9 ± 3.5 µM | 1.5 | 1.2 | > 100 µM | 23 ± 0.2 µM | 6.3 ± 0.5 µM | 3.3 ± 0.3 µM | substrate for P-gp ([5]; SW1573 vs SW1573/PGP, with or without 10 µM verapamil): not substrates for P-gp |
| CC1=C2C(CC3C4CC=C5C[C@@H](O)CC[C@]5(C)C4CC[C@]23C)NC(=S)N1 (stereo partly drawn) [Compound 7c, 1′,3′-dihydro-4′-methyl-2′-thionepyrimidin-(6′,5′:16, 17)-androst-5-en-3β-ol] | 3.4 ± 0.5 µM | 3.7 ± 1 µM | 208 to 210 °C | 16 ± 1.3 µM | 3 ± 0.5 µM | 1.1 | 1.7 | > 100 µM | 9.4 ± 1 µM | 3.1 ± 0.4 µM | 2.6 ± 0.7 µM | GI50 [11]: 2.6 to 3.7 µM |
| C[C@]12CCC3C(CC=C4C[C@@H](O)CC[C@@]43C)C1CCC2C1=CC(c2ccccc2)NC(=N)N1 (stereo partly drawn) [Compound 3a, 17β-(2′-imino-1′,3′,6′-trihydro-6′-phenylpyrimidin-4′-yl)-androst-5-en-3β-ol] | 4.4 ± 1 µM | 23 ± 2.8 µM | 128 °C | 10 ± 4.2 µM | 8.8 ± 2.2 µM | 0.7 | 1.5 | > 100 µM | 6.9 ± 0.5 µM | 8.3 ± 1.1 µM | 6.1 ± 1.2 µM |  |
| CC1=C2C(CC3C4CC=C5C[C@@H](O)CC[C@]5(C)C4CC[C@]23C)NC(=N)N1 (stereo partly drawn) [Compound 7a, 1′,3′-dihydro-2′-imino-4′-methylpyrimidin-(6′,5′:16,17)-androst-5-en-3β-ol] |  |  | 108 to 110 °C |  |  |  |  |  |  |  |  | solubility under protocol conditions [12]: poor solubility |
| CC1=C2C(CC3C4CC=C5C[C@@H](O)CC[C@]5(C)C4CC[C@]23C)NC(=O)N1 (stereo partly drawn) [Compound 7b, 1′,3′-dihydro-4′-methyl-2′-oxopyrimidin-(6′,5′:16,17)-androst-5-en-3β-ol] | 13 ± 3.7 µM | 15 ± 3.2 µM | 163 to 164 °C | 49 ± 4.4 µM | 15 ± 1.9 µM | 1.4 | 1.5 | > 100 µM | 34 ± 4.7 µM | 18 ± 1.8 µM | 3.4 ± 0.2 µM |  |
